Results: patent US9937235B2, “Lipidated peptides as anti-obesity agents” (USTAV ORGANICKE CHEMIE A BIOCHEMIE AKADEMIE VED CR, V.V.I, priority 2012, dated 2018)
Where a SMILES comes first, the peptide text is derived from it. Where no end group is shown, it is not given here. [ ]: non-standard residue; d: D form. The star is where a group is joined. Phe(F5) = N[C@@H](Cc1c(F)c(F)c(F)c(F)c1F)C(=O)O; Palmitoyl = CCCCCCCCCCCCCCCC(=O)*; Myristoyl = CCCCCCCCCCCCCC(=O)*; Lauroyl = CCCCCCCCCCCC(=O)*; Decanoyl = CCCCCCCCCC(=O)*; Nle = CCCC[C@H](N)C(=O)O; Dap = NC[C@H](N)C(=O)O

T1: human PrRP receptor, GPR10 (Homo sapiens, UniProt P49683)
T1 construct: host or cells: CHO cells
T1 sequence (P49683 1-370): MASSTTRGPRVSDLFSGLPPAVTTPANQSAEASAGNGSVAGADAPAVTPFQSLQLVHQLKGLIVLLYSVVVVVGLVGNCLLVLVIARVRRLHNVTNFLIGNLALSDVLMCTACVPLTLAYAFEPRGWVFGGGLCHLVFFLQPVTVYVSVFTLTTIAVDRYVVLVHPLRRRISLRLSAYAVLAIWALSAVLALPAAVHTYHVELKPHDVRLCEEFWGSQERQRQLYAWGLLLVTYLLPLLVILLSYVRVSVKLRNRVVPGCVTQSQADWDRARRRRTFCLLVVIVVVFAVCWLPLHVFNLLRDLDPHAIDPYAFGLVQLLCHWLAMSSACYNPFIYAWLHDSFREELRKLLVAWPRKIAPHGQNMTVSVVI

T2: rat PrRP receptor (GPR10) in RC-4B/C cells (Rattus norvegicus, UniProt Q64121)
T2 construct: host or cells: RC-4B/C rat pituitary cell line
T2 sequence (Q64121 1-370): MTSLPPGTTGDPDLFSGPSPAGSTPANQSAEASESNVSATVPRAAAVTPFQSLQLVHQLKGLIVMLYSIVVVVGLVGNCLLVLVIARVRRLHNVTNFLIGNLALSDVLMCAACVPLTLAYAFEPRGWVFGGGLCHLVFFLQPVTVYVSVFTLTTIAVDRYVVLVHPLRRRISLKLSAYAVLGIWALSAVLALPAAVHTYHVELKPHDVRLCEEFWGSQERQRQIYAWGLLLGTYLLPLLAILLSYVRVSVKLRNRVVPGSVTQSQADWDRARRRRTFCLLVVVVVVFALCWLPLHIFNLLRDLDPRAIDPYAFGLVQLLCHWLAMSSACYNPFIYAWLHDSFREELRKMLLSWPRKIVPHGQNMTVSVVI

T3: rat PrRP receptor in RC-4B/C cells (rat, UniProt Q64121 1-370)
T3 construct: whole, on cells; also called the rat receptor; GPR10
T3 sequence (looked up): T2 sequence (Q64121 1-370)

B1: analog no. 11 (peptide)
peptide: [Dap]RTHRHS[Nle]EIRTPDINPAWYASRGIRPVGRF-NH2
modifications: N-terminus assumed
SMILES: CCCC[C@H](NC(=O)[C@H](CO)NC(=O)[C@H](Cc1c[nH]cn1)NC(=O)[C@H](CCCNC(=N)N)NC(=O)[C@H](Cc1c[nH]cn1)NC(=O)[C@@H](NC(=O)[C@H](CCCNC(=N)N)NC(=O)[C@@H](N)CN)[C@@H](C)O)C(=O)N[C@@H](CCC(=O)O)C(=O)N[C@H](C(=O)N[C@@H](CCCNC(=N)N)C(=O)N[C@H](C(=O)N1CCC[C@H]1C(=O)N[C@@H](CC(=O)O)C(=O)N[C@H](C(=O)N[C@@H](CC(N)=O)C(=O)N1CCC[C@H]1C(=O)N[C@@H](C)C(=O)N[C@@H](Cc1c[nH]c2ccccc12)C(=O)N[C@@H](Cc1ccc(O)cc1)C(=O)N[C@@H](C)C(=O)N[C@@H](CO)C(=O)N[C@@H](CCCNC(=N)N)C(=O)NCC(=O)N[C@H](C(=O)N[C@@H](CCCNC(=N)N)C(=O)N1CCC[C@H]1C(=O)N[C@H](C(=O)NCC(=O)N[C@@H](CCCNC(=N)N)C(=O)N[C@@H](Cc1ccccc1)C(N)=O)C(C)C)[C@@H](C)CC)[C@@H](C)CC)[C@@H](C)O)[C@@H](C)CC
notes: analog of human PrRP31
B2: analog no. 12 (peptide)
peptide: [Dap](Myristoyl)RTHRHS[Nle]EIRTPDINPAWYASRGIRPVGRF-NH2
modifications: N-terminus assumed
SMILES: CCCCCCCCCCCCCC(=O)NC[C@H](N)C(=O)N[C@@H](CCCNC(=N)N)C(=O)N[C@H](C(=O)N[C@@H](Cc1c[nH]cn1)C(=O)N[C@@H](CCCNC(=N)N)C(=O)N[C@@H](Cc1c[nH]cn1)C(=O)N[C@@H](CO)C(=O)N[C@@H](CCCC)C(=O)N[C@@H](CCC(=O)O)C(=O)N[C@H](C(=O)N[C@@H](CCCNC(=N)N)C(=O)N[C@H](C(=O)N1CCC[C@H]1C(=O)N[C@@H](CC(=O)O)C(=O)N[C@H](C(=O)N[C@@H](CC(N)=O)C(=O)N1CCC[C@H]1C(=O)N[C@@H](C)C(=O)N[C@@H](Cc1c[nH]c2ccccc12)C(=O)N[C@@H](Cc1ccc(O)cc1)C(=O)N[C@@H](C)C(=O)N[C@@H](CO)C(=O)N[C@@H](CCCNC(=N)N)C(=O)NCC(=O)N[C@H](C(=O)N[C@@H](CCCNC(=N)N)C(=O)N1CCC[C@H]1C(=O)N[C@H](C(=O)NCC(=O)N[C@@H](CCCNC(=N)N)C(=O)N[C@@H](Cc1ccccc1)C(N)=O)C(C)C)[C@@H](C)CC)[C@@H](C)CC)[C@@H](C)O)[C@@H](C)CC)[C@@H](C)O
notes: analog of human PrRP31

Tests used:
[1] = biological target: T1, human PrRP receptor, GPR10; experiment: Competitive binding to CHO cells with transfected human GPR10; conditions: CHO cells with transfected human GPR10, human ^125I—PrRP31
Experimental: Competitive binding experiments were performed according to Motulsky and Neubig (Motulsky, A., et al., “Analyzing radioligand binding data,” Curr Protoc Neurosci, Chapter 7, Unit 7.5, 2002).
CHO cells with transfected human PrRP receptor, GPR10 (Perkin Elmer, USA) were grown on 24-well plates coated with polyethyleneimine. The cells were grown to the optimal density of 40-80 thousand cells per well. The following agents were used for the experiment: binding buffer (25 mmol·l^−1 Tris, pH 7.4; 118 mmol·l^−1 NaCl, 10 mmol·l^−1 MgCl2, 1 mmol·l^−1 CaCl2, 5.5 mmol·l^−1 glucose, 0.5 mg/ml BSA), unlabelled analogs of PrRP of final concentration within 10^−11 to 10^−4 mol·l^−1, and human ^125I—PrRP31 of final concentration of 5×10^−11 mol·l^−1.
(§1) Plates were incubated for 60 minutes at room temperature. After incubation, the cells were solubilized in 0.1 mol/l solution of NaOH and the radioactivity bound to the cells was counted using a γ-counter. The experiments were performed in duplicate and repeated at least three times.
For evaluation of competitive binding experiments, the program Graph Pad Prism Software (San Diego, Calif., USA) was used. A method of nonlinear regression assuming one-site binding was used.

fasted C57BL/6 mice = experiment: Food intake in fasted mice after SC administration; assay type: in vivo, mouse; conditions: fasted C57BL/6 mice, 5 mg/kg SC, 45 min
Method in brief: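 Male C57BL/6 mice, food-deprived 17 h, received saline, PrRP or lipidated analogs either SC at 1-10 mg/kg or ICV into the third ventricle at 4 nmol/mouse.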

[2] = biological target: T2, rat PrRP receptor (GPR10) in RC-4B/C cells; experiment: Competitive binding to rat pituitary RC-4B/C cells; conditions: rat RC-4B/C cells, Table 5; read-out: C-4B/C cells ^25I-rat PrRP31 Ki
[3] = biological target: T3, rat PrRP receptor in RC-4B/C cells; experiment: competition with 125I-rat PrRP31 on RC-4B/C cells
[4] = biological target: T3, rat PrRP receptor in RC-4B/C cells; experiment: competition with 125I-rat PrRP31 on RC-4B/C cells; Ki by Cheng-Prusoff
Experimental: The rat pituitary cell line RC-4B/C (ATCC, Manassas, USA) was grown on 24-well plates which had their bottom coated with polyethyleneimine. The cells were grown to the optimal density of 300-450 thousand per well.
as §1

[5] = biological target: T3, rat PrRP receptor in RC-4B/C cells; experiment: competition with 125I-human PrRP31 on RC-4B/C cells; Ki by Cheng-Prusoff

Row | Molecule | Ki [1] | Food intake in mice (5 mg/kg SC) % saline-treated group (45 min) (fasted C57BL/6 mice) | Ki [2] | Ki [3] | Ki [4] | Ki [5]
1 | CCCC[C@H](NC(=O)[C@H](CO)NC(=O)[C@H](Cc1c[nH]cn1)NC(=O)[C@H](CCC(N)=O)NC(=O)[C@H](Cc1c[nH]cn1)NC(=O)[C@H](C)NC(=O)[C@H](CCCNC(=N)N)NC(=O)[C@@H](N)CO)C(=O)N[C@@H](CCC(=O)O)C(=O)N[C@H](C(=O)N[C@@H](CCCNC(=N)N)C(=O)N[C@H](C(=O)N1CCC[C@H]1C(=O)N[C@@H](CC(=O)O)C(=O)N[C@H](C(=O)N[C@@H](CC(N)=O)C(=O)N1CCC[C@H]1C(=O)N[C@@H](C)C(=O)N[C@@H](Cc1c[nH]c2ccccc12)C(=O)N[C@@H](Cc1ccc(O)cc1)C(=O)N[C@H](C(=O)NCC(=O)N[C@@H](CCCNC(=N)N)C(=O)NCC(=O)N[C@H](C(=O)N[C@@H](CCCNC(=N)N)C(=O)N1CCC[C@H]1C(=O)N[C@H](C(=O)NCC(=O)N[C@@H](CCCNC(=N)N)C(=O)N[C@@H](Cc1ccccc1)C(N)=O)C(C)C)[C@@H](C)CC)[C@@H](C)O)[C@@H](C)CC)[C@@H](C)O)[C@@H](C)O [Analog 14] (H-SRAHQHS[Nle]ETRTPDINPAWYTGRGIRPVGRF-NH2) | 1.92 ± 0.43 nM | 100% |  |  |  | 
2 | CCCCCCCCCCCCCCCC(=O)N[C@@H](CO)C(=O)N[C@@H](CCCNC(=N)N)C(=O)N[C@@H](C)C(=O)N[C@@H](Cc1c[nH]cn1)C(=O)N[C@@H](CCC(N)=O)C(=O)N[C@@H](Cc1c[nH]cn1)C(=O)N[C@@H](CO)C(=O)N[C@@H](CCCC)C(=O)N[C@@H](CCC(=O)O)C(=O)N[C@H](C(=O)N[C@@H](CCCNC(=N)N)C(=O)N[C@H](C(=O)N1CCC[C@H]1C(=O)N[C@@H](CC(=O)O)C(=O)N[C@H](C(=O)N[C@@H](CC(N)=O)C(=O)N1CCC[C@H]1C(=O)N[C@@H](C)C(=O)N[C@@H](Cc1c[nH]c2ccccc12)C(=O)N[C@@H](Cc1ccc(O)cc1)C(=O)N[C@H](C(=O)NCC(=O)N[C@@H](CCCNC(=N)N)C(=O)NCC(=O)N[C@H](C(=O)N[C@@H](CCCNC(=N)N)C(=O)N1CCC[C@H]1C(=O)N[C@H](C(=O)NCC(=O)N[C@@H](CCCNC(=N)N)C(=O)N[C@@H](Cc1c(F)c(F)c(F)c(F)c1F)C(N)=O)C(C)C)[C@@H](C)CC)[C@@H](C)O)[C@@H](C)CC)[C@@H](C)O)[C@@H](C)O [Analog 33] (Palmitoyl-SRAHQHS[Nle]ETRTPDINPAWYTGRGIRPVGR[Phe(F5)]-NH2) | 1.92 ± 0.53 nM | 41% | 0.51 ± 0.08 nM |  |  | 
3 | CCCCCCCCCC(=O)N[C@H](C(=O)N1CCC[C@H]1C(=O)N[C@@H](CC(=O)O)C(=O)N[C@H](C(=O)N[C@@H](CC(N)=O)C(=O)N1CCC[C@H]1C(=O)N[C@@H](C)C(=O)N[C@@H](Cc1c[nH]c2ccccc12)C(=O)N[C@@H](Cc1ccc(O)cc1)C(=O)N[C@@H](C)C(=O)N[C@@H](CO)C(=O)N[C@@H](CCCNC(=N)N)C(=O)NCC(=O)N[C@H](C(=O)N[C@@H](CCCNC(=N)N)C(=O)N1CCC[C@H]1C(=O)N[C@H](C(=O)NCC(=O)N[C@@H](CCCNC(=N)N)C(=O)N[C@@H](Cc1ccccc1)C(N)=O)C(C)C)[C@@H](C)CC)[C@@H](C)CC)[C@@H](C)O [Analog 53] (Decanoyl-TPDINPAWYASRGIRPVGRF-NH2) | 2.41 ± 0.26 nM | 100% |  |  |  | 
4 | CCCCCCCCCCCC(=O)N[C@H](C(=O)N1CCC[C@H]1C(=O)N[C@@H](CC(=O)O)C(=O)N[C@H](C(=O)N[C@@H](CC(N)=O)C(=O)N1CCC[C@H]1C(=O)N[C@@H](C)C(=O)N[C@@H](Cc1c[nH]c2ccccc12)C(=O)N[C@@H](Cc1ccc(O)cc1)C(=O)N[C@@H](C)C(=O)N[C@@H](CO)C(=O)N[C@@H](CCCNC(=N)N)C(=O)NCC(=O)N[C@H](C(=O)N[C@@H](CCCNC(=N)N)C(=O)N1CCC[C@H]1C(=O)N[C@H](C(=O)NCC(=O)N[C@@H](CCCNC(=N)N)C(=O)N[C@@H](Cc1ccccc1)C(N)=O)C(C)C)[C@@H](C)CC)[C@@H](C)CC)[C@@H](C)O [Analog 54] (Lauroyl-TPDINPAWYASRGIRPVGRF-NH2) | 2.41 ± 0.26 nM | 85% |  |  |  | 
5 | SRTHRHSMEIRTPDINPAWYASRGIRPVGRF-NH2 (also called hPrRP31; analog no; 50) [Human PrRP31] |  |  |  | 1.78 nM | 1.54 nM | 3.01 nM
6 | B1 |  |  |  |  | 2.28 nM | 2 nM
7 | B2 |  |  |  |  | 4.13 nM | 
